Laboratory results reported in PMC10459693, “Toward Stability Enhancement of NTS1R-Targeted Radioligands: Structural Interventions on [^99mTc]Tc-DT1” (Pharmaceutics, 2023).
Read-outs that look alike come from different tables or passages of the source. Peptide text beside a SMILES is read from it. * marks the point of attachment. Palmitoyl = CCCCCCCCCCCCCCCC(=O)*; X1 = NCCNCC(CNCCN)C(=O)*

Assay: Biodistribution in SCID mice bearing AsPC-1 xenografts
Type: in vivo
Conditions: male, mouse, iv, total radioactivity; for tissue uptake at 4 h: 4 h pi; for tissue uptake at 24 h: 24 h pi
Description: Twenty male severe combined immunodeficiency (SCID) mice (23.1 ± 1.6 g body weight, six weeks of age on arrival day; NCSR “Demokritos” Animal House, Athens, Greece) were used in the biodistribution experiments. Animals were subcutaneously inoculated in their right flanks with a sterile suspension of freshly harvested AsPC-1 cells (150 μL, 5 × 10^6 cells/animal), and 3–4 weeks later, they developed well-palpable tumors at the implantation sites. During this period, mice were housed in suitable facilities under sterile conditions with 12 h day/night cycles and were provided with sterilized chow food and drinking water ad libitum. At the date of the experiment, animals were randomly divided in groups of four and received through the tail vein a bolus of [^99mTc]Tc-DT9 (100 μL, 3 pmol in vehicle: PBS/EtOH 9/1 v/v with the addition of 0.1% Tween-80) plus vehicle (100 μL; controls at 4 and 24 h pi) or plus Lis (100 μg in 100 μL vehicle); the latter groups had additionally received per os 30 min in advance Entresto® (200 μL, 12 mg; Entresto®+Lis groups at 4 and 24 h pi). A further 4 h group of animals was treated with Entresto®, and 30 min later, mice were co-injected with excess NT and Lis (100 μg NT and 100 μg Lis in 100 μL vehicle—NTS1R block). At the predetermined time intervals, mice were euthanized and weighted, and their blood, organs, and tissue samples of choice as well as the implanted tumors were collected and weighted. Sample radioactivity was measured on the γ-counter together with proper standards of the injected dose. Results were calculated as percentage of injected activity per gram tissue (%IA/g) and provided as mean %IA/g values ± sd. For comparisons, a two-way ANOVA with Tukey’s post hoc analysis was adopted (PRISM^TM 6.0 GraphPad Software, San Diego, CA, USA). p-values < 0.05 were considered statistically significant.

[1] = AsPC-1 tumor, 3 pmol, Controls, read-out: uptake in AsPC-1 Tumor
[2] = AsPC-1 tumor, Entresto+Lis, read-out: uptake in AsPC-1 Tumor
[3] = blood, 3 pmol, Controls, read-out: uptake in Blood
[4] = blood, Entresto+Lis, read-out: uptake in Blood
[5] = heart, 3 pmol, Controls, read-out: uptake in Heart
[6] = heart, Entresto+Lis, read-out: uptake in Heart
[7] = intestines, 3 pmol, Controls, read-out: uptake in Intestines
[8] = intestines, Entresto+Lis, read-out: uptake in Intestines
[9] = kidneys, 3 pmol, Controls, read-out: uptake in Kidneys
[10] = kidneys, Entresto+Lis, read-out: uptake in Kidneys
[11] = liver, 3 pmol, Controls, read-out: uptake in Liver
[12] = liver, Entresto+Lis, read-out: uptake in Liver
[13] = lungs, 3 pmol, Controls, read-out: uptake in Lungs
[14] = lungs, Entresto+Lis, read-out: uptake in Lungs
[15] = muscle, 3 pmol, Controls, read-out: uptake in Muscle
[16] = muscle, Entresto+Lis, read-out: uptake in Muscle
[17] = pancreas, 3 pmol, Controls, read-out: uptake in Pancreas
[18] = pancreas, Entresto+Lis, read-out: uptake in Pancreas
[19] = spleen, 3 pmol, Controls, read-out: uptake in Spleen
[20] = spleen, Entresto+Lis, read-out: uptake in Spleen
[21] = stomach, 3 pmol, Controls, read-out: uptake in Stomach
[22] = stomach, Entresto+Lis, read-out: uptake in Stomach

CCCCCCCCCCCCCCCC(=O)NCCCC[C@H](NC(=O)C(CNCCN)CNCCN)C(=O)N[C@@H](CCCNC(=N)N)C(=O)N[C@@H](CCCNC(=N)N)C(=O)N1CCC[C@H]1C(=O)N[C@@H](Cc1ccc(O)cc1)C(=O)N[C@H](C(=O)N[C@@H](CC(C)C)C(=O)O)[C@@H](C)CC [[^99mTc]Tc-DT9, metal not drawn] (X1-K(Palmitoyl)RRPYIL-OH)
tissue uptake at 4 h [1]: 6.15 ± 0.92 %ID/g
tissue uptake at 24 h [1]: 3.32 ± 0.35 %ID/g
tissue uptake at 4 h (AsPC-1 tumor, Block (Entresto+Lis plus excess NT), read-out: uptake in AsPC-1 Tumor): 3.68 ± 0.92 %ID/g
tissue uptake at 4 h [2]: 5.24 ± 0.27 %ID/g
tissue uptake at 24 h [2]: 2.84 ± 0.43 %ID/g
tissue uptake at 4 h [3]: 4.63 ± 0.55 %ID/g
tissue uptake at 4 h (blood, 3 pmol, all animal groups, read-out: radioactivity levels in the blood): > 4 %ID/g
tissue uptake at 24 h [3]: 0.68 ± 0.18 %ID/g
tissue uptake at 4 h (blood, Block (Entresto+Lis plus excess NT), read-out: uptake in Blood): 4.25 ± 0.37 %ID/g
tissue uptake at 4 h [4]: 4.32 ± 0.42 %ID/g
tissue uptake at 24 h [4]: 0.7 ± 0.06 %ID/g
tissue uptake at 4 h [5]: 3.12 ± 0.43 %ID/g
tissue uptake at 24 h [5]: 0.64 ± 0.11 %ID/g
tissue uptake at 4 h (heart, Block (Entresto+Lis plus excess NT), read-out: uptake in Heart): 2.79 ± 0.47 %ID/g
tissue uptake at 4 h [6]: 2.85 ± 2.48 %ID/g
tissue uptake at 24 h [6]: 0.71 ± 0.06 %ID/g
tissue uptake at 4 h [7]: 13 ± 4.6 %ID/g
tissue uptake at 24 h [7]: 4.26 ± 0.61 %ID/g
tissue uptake at 4 h (intestines, Block (Entresto+Lis plus excess NT), read-out: uptake in Intestines): 6.27 ± 0.72 %ID/g
tissue uptake at 4 h [8]: 7.9 ± 0.88 %ID/g
tissue uptake at 24 h [8]: 5.37 ± 1.61 %ID/g
tissue uptake at 4 h [9]: 9.53 ± 1.18 %ID/g
tissue uptake at 24 h [9]: 3.81 ± 0.54 %ID/g
tissue uptake at 4 h (kidneys, Block (Entresto+Lis plus excess NT), read-out: uptake in Kidneys): 8.56 ± 0.87 %ID/g
tissue uptake at 4 h [10]: 9.15 ± 0.62 %ID/g
tissue uptake at 24 h [10]: 4.63 ± 0.15 %ID/g
tissue uptake at 4 h [11]: 29.6 ± 3.77 %ID/g
tissue uptake at 24 h [11]: 12.9 ± 1.66 %ID/g
tissue uptake at 4 h (liver, Block (Entresto+Lis plus excess NT), read-out: uptake in Liver): 30.9 ± 4.25 %ID/g
tissue uptake at 4 h [12]: 28.4 ± 2.48 %ID/g
tissue uptake at 24 h [12]: 17 ± 0.94 %ID/g
tissue uptake at 4 h [13]: 8.8 ± 1.42 %ID/g
tissue uptake at 24 h [13]: 3.42 ± 0.67 %ID/g
tissue uptake at 4 h (lungs, Block (Entresto+Lis plus excess NT), read-out: uptake in Lungs): 8.46 ± 1.26 %ID/g
tissue uptake at 4 h [14]: 7.61 ± 0.64 %ID/g
tissue uptake at 24 h [14]: 3.62 ± 0.94 %ID/g
tissue uptake at 4 h [15]: 0.93 ± 0.13 %ID/g
tissue uptake at 24 h [15]: 0.22 ± 0.02 %ID/g
tissue uptake at 4 h (muscle, Block (Entresto+Lis plus excess NT), read-out: uptake in Muscle): 0.82 ± 0.11 %ID/g
tissue uptake at 4 h [16]: 0.81 ± 0.04 %ID/g
tissue uptake at 24 h [16]: 0.24 ± 0.01 %ID/g
tissue uptake at 4 h [17]: 2.1 ± 0.3 %ID/g
tissue uptake at 24 h [17]: 0.75 ± 0.17 %ID/g
tissue uptake at 4 h (pancreas, Block (Entresto+Lis plus excess NT), read-out: uptake in Pancreas): 1.84 ± 0.41 %ID/g
tissue uptake at 4 h [18]: 1.85 ± 0.18 %ID/g
tissue uptake at 24 h [18]: 0.8 ± 0.07 %ID/g
tissue uptake at 4 h [19]: 6.82 ± 1.11 %ID/g
tissue uptake at 24 h [19]: 3.42 ± 0.54 %ID/g
tissue uptake at 4 h (spleen, Block (Entresto+Lis plus excess NT), read-out: uptake in Spleen): 6.18 ± 1.37 %ID/g
tissue uptake at 4 h [20]: 5.47 ± 0.47 %ID/g
tissue uptake at 24 h [20]: 4.47 ± 0.83 %ID/g
tissue uptake at 4 h [21]: 3.09 ± 1.06 %ID/g
tissue uptake at 24 h [21]: 1.73 ± 0.5 %ID/g
tissue uptake at 4 h (stomach, Block (Entresto+Lis plus excess NT), read-out: uptake in Stomach): 2.06 ± 0.47 %ID/g
tissue uptake at 4 h [22]: 2.27 ± 0.38 %ID/g
tissue uptake at 24 h [22]: 1.56 ± 0.31 %ID/g
